Laboratory results as given in patent US10220025B1, “Self-emulsifying formulation of CARP-1 functional mimetics” (Florida A&M University, priority 2016, dated 2019).
Read-outs that look alike come from different tables or passages of the source.

What was measured:
[1] = test system: Adriamycin-resistant (ADR-R) 4T1 sublines; experiment: MTT viability assay, ADR-resistant 4T1 sublines; assay type: cell-based; settings: Mus musculus; 72 h; ADR-R Clones 1-6
Description: Human TNBC MDA-MB-468 and MDA-MB-231, and mouse TNBC 4T1 cells were cultured in the chronic presence (>10 months) of Doxorubicin. The parental, wild-type cells were initially treated with 200 nM Doxorubicin for 2-3 weeks, followed by escalation to 400 nM, 1 μM, and 2 μM doses over a period of 3-4 weeks for each dose till resistance developed and the cells became well adapted to growth in 1 μM dose of Doxorubicin for their routine culture. […] Subsequent, routine maintenance of the resistant cells in the presence of the respective drug was continued and multiple, resistant sublines for each of the TNBC cells were isolated and characterized for their growth inhibitory (GI)50 dose of respective therapeutic by the MTT-based viability assays as below.
(§2) In vitro inhibition of cell growth was assessed by MTT (3-[4, 5-dimethyltiazol-2-yl]-2.5-diphenyl tetrazolium bromide) reagent. Cells (5×10^3) were seeded in a 96-well culture plate and subsequently treated with respective agents at different concentrations as mentioned. Control cells were treated with 0.1% DMSO in culture medium. After treatment, the cells were incubated with 1 mg/ml of MTT reagent at 37° C. for 2-4 hours and then MTT was removed and 50 μL of DMSO was added, followed by colorimetric analysis using a multi-label plate reader at 560 nm (Victor3; PerkinElmer, Wellesley, Mass., USA).

[2] = test system: Adriamycin-resistant (ADR-R) MDA-MB-231 sublines; experiment: MTT viability assay, ADR-resistant MDA-MB-231 sublines; assay type: cell-based; settings: Homo sapiens, 72 h, ADR-R Clones 1-6
Description: (§1) Human TNBC MDA-MB-468 and MDA-MB-231, and mouse TNBC 4T1 cells were cultured in the chronic presence (>10 months) of Doxorubicin. The parental, wild-type cells were initially treated with 200 nM Doxorubicin for 2-3 weeks, followed by escalation to 400 nM, 1 μM, and 2 μM doses over a period of 3-4 weeks for each dose till resistance developed and the cells became well adapted to growth in […] of Doxorubicin for their routine culture. In the case of Cisplatin however, the human TNBC MDA-MB-468 and MDA-MB-231 were initially cultured in continuous presence of 1 μM Cisplatin for 3-4 weeks, and the dose was escalated to 1.5 μM and 3 μM over periods of 3-4 weeks for each dose till resistance developed and cells became adapted to routine culture in 3 μM dose. Subsequent, routine maintenance of the resistant cells in the presence of the respective drug was continued and multiple, resistant sublines for each of the TNBC cells were isolated and characterized for their growth inhibitory (GI)50 dose of respective therapeutic by the MTT-based viability assays as below.

TNBC cells = experiment: MTT viability assay, parental TNBC cells (lines not singled out); assay type: cell-based
Description: as §2

[3] = test system: MDA-MB-231 TNBC cells, wild type; experiment: MTT viability assay, parental MDA-MB-231; assay type: cell-based, human; settings: Homo sapiens, MDA-MB-231; 72 h; Wild type
Description: as §2

[4] = test system: MDA-MB-468 TNBC cells, wild type; experiment: MTT viability assay, parental MDA-MB-468; assay type: cell-based, human; settings: Homo sapiens, MDA-MB-468; 72 h; Wild type
Description: as §2

[5] = test system: drug-resistant TNBC cells; experiment: MTT viability assay, drug-resistant TNBC sublines (not singled out); assay type: cell-based; settings: read-out: GI50 dose, doxorubicin-resistant TNBC cells
Description: as §1

[6] = test system: CSC-enriched populations from xenografts of parental and ADR-resistant MDA-MB-231 TNBC cells; experiment: MTT viability of tumor-derived CSC-enriched cells; assay type: cell-based, human; settings: dose-dependent; FIG. 15C
Description: The CSC-enriched cells were then treated with ADR, CFM-4.16, or a combination of both for noted dose and time. The cell viabilities were determined by MTT-based assay as in FIGS. 3A-3C, and plotted relative to the MTT values for the respective untreated controls. The histogram columns in panels B and C represent means of three and four independent experiments, respectively; bars, S.E. α, αα, β, ββ, ^*,**,#,##p=<0.03 relative to respective cells treated with ADR+CFM-4.16.
The TNBC cells were obtained from tumors derived from parental and drug-resistant cells or from a two-dimensional culture plate with ˜70-80% confluence. The cells were washed twice in 1×PBS and trypsinized following established protocols. […]
It was next clarified whether and to the extent CFM-4.16 was able to interfere with growth of mammospheres derived from parental and drug-resistant TNBC-cells. […] The growing mammosphere cultures were then exposed to CFM-4.16, and the viabilities of untreated and treated cultures were determined by an MTT-based assay. […]

[7] = test system: 4T1 TNBC cells, wild type; experiment: MTT viability assay, parental 4T1; assay type: cell-based, mouse; settings: Mus musculus; 72 h; Wild type
Description: as §2

[8] = test system: Adriamycin-resistant (ADR-R) MDA-MB-468 sublines; experiment: MTT viability assay, ADR-resistant MDA-MB-468 sublines; assay type: cell-based, human
Description: as §1

Question: Which results are given for `COc1cccc2c1C(=O)c1c(O)c3c(c(O)c1C2=O)C[C@@](O)(C(=O)CO)C[C@@H]3O[C@H]1C[C@H](N)[C@H](O)[C@H](C)O1` [Adriamycin, Doxorubicin, reference compound]?
Answer: GI50 [1]: > 10000 nM; GI50 [2]: > 10000 nM; GI50 (TNBC cells; 72 h treatment period, read-out: GI50 doses, both the parental TNBC cell lines): < 100 nM; GI50 (TNBC cells; read-out: GI50 dose, parental cells): 20 to 100 nM; GI50 [3]: < 100 nM; GI50 [4]: ~20 nM; GI50 [5]: ≥ 10000 nM; viabilities of CSC enriched TNBC cells vs untreated [6]: significant loss of viabilities; GI50 [7]: ~100 nM; GI50 dose higher than wild-type, parental counterparts ([8]; ADR-resistant MDA-MB-468 vs parental): ≥ 500 fold; GI50 ([8]; Homo sapiens, MDA-MB-468, 72 h, ADR-R Clones 1-6): ~10000 nM
